{
  "source": "patent US20020159981A1",
  "about": "“Methods of controlling proliferation and differentiation of stem and progenitor cells” (Gamida-Cell Ltd., priority 1999, published 2002)",
  "key": {"[1]": {"system": "Cord blood-derived CD34 cells", "experiment": "Short-term liquid culture of CD34 cells: cell number, CD34 cells, colony forming cells", "assay_type": "cell-based, human", "conditions": "for effects of transition metal chelators on CD34^+ cells: 10 μM, day 7 (FIG. 7); for reversal of TEPA activities by supplemented ions: TEPA-treated cultures, short to medium term (FIGS. 8, 9)", "method": "The interphase layer of mononuclear cells were collected, washed three times with Ca/Mg free phosphate buffered saline containing 1% bovine serum albumin (BSA). The cells were incubated for 30 min. at 4° C. with murine monoclonal anti CD34 antibody (0.5 μg/10^6 mononuclear cells) and thereafter isolated using the miniMACS apparatus (Miltenyi-Biotec, Bergisch, Gladbach, Germany) according to the manufacturer's protocol.\n(§1) Culture procedures: For the expansion of progenitor cells, CD34^+ enriched fractions or unseparated mononuclear cells were seeded at about 1-3×10^4 cells/ml in either alpha minimal essential medium containing 10% preselected fetal calf serum (FCS) (both from GIBCO, Grand Island, N.Y.), or serum-free medium (Progenitor-34 medium, Life Technologies, Grand Island, N.Y.). The media were supplemented with a mixture of growth factors and transition metal chelators. The cultures were incubated at 37° C. in an atmosphere of 5% CO2 in air with extra humidity. Half of the medium was changed weekly with fresh medium containing all the supplements.\n(§2) Cloning potential evaluations: The cloning potential of cells developed in the liquid culture was assayed, at different intervals, in semi-solid medium. The cells were washed and seeded in 35 mm dishes in methylcellulose containing alpha medium supplemented with recombinant growth factors (SCF, G-CSF, GM-CSF and EPO). Following 2 weeks incubation, the cultures were scored with an inverted microscope. Colonies were classified as blast, mixed, erythroid, myeloid, and megakaryocytic, according to their cellular composition.\nImmunofluorescence staining: At different intervals, cells from the liquid cultures were assayed for CD34 antigen. Aliquots were harvested, washed and incubated on ice with FITC-labeled anti CD45 monoclonal antibody and either PE-labeled anti CD34 (HPCA-2) monoclonal antibody or PE-labeled control mouse Ig. After incubation, red cells were lysed with lysing solution, while the remaining cells were washed and analyzed by flow cytometer.\nFlow cytometry: Cells were analyzed and sorted using FACStarPlus flow cytometer (Becton-Dickinson, Immunofluorometry systems, Mountain View, Calif.). Cells were passed at a rate of 1,000 cells/second through a […] nozzle, using saline as the sheath fluid. A 488 nm argon laser beam at 250 mW served as the light source for excitation. […] The PMTs was set at the appropriate voltage. Logarithmic amplification was applied for measurements of fluorescence and linear amplification—for forward light scatter. At least 10^4 cells were analyzed.\nCord blood-derived CD34 cells were plated in liquid culture in the presence of: FL—50 ng/ml, SCF—50 ng/ml, IL-6—50 ng/ml, with or without IL-3—20 ng/ml, with or without TEPA—10 μM. On day 7, the percentage of CD34 cells and the total cell number were determined. Aliquots equivalent to 1×10^3 initiating cells were assayed on days 0 and 7 for colony forming cells (CFU) by cloning in semi-solid medium. CFU expansion represents the ratio of CFU present on day 7 to CFU present on day 0."}, "[2]": {"system": "Cord blood-derived CD34 cells", "experiment": "Long-term liquid culture of CD34 cells: proliferation, CFUc, differentiation status", "assay_type": "cell-based, human", "conditions": "for cell proliferation and generation of CFUc in long-term cultures: long-term cultures (FIGS. 21, 22)", "method": "as §1, §2\nMorphological assessment: In order to characterize the resulting culture populations, aliquots of cells were deposited on a glass slide (cytocentrifuge, Shandon, Runcorn, UK), fixed and stained in May-Grunwald Giemsa. Other aliquots were stained by benzidine for intracellular hemoglobin.\nTEPA effects on proliferation and clonability of long-term CD34^+ cultures: Long-term cultures were maintained for 3-5 weeks by weekly demi-depopulation (one half of the culture volume was removed and replaced by fresh medium and cytokines).\nCD34^+ cells derived from human neonatal cord blood were purified by immunomagnetic method and then cultured in liquid medium supplemented with cytokines either with or without transition metal chelators. At weekly intervals, the cultures were demi-depopulated by removing half of the culture content (supernatant and cells) and replacing it with fresh medium, cytokines and the chelators. At the indicated weeks the cellular content of the cultures were quantified for total cells (by a manual microscopic/hemocytometric method), for CD34^+ cells (by immuno-flow cytometry) and for clonogenic cells (by cloning the cells in cytokine-supplemented semi-solid medium). The cultures were initiated with 1×10^4 cells, 50-80% of which were CD34^+ and 25-50% of which were CFUc. The results presented in FIGS. 11 to 24 were calculated per 1×10^4 initiating cells (the numbers were multiplied by the dilution factors)."}, "[3]": {"system": "Murine erythroleukemia cells (MEL)", "experiment": "HMBA-induced differentiation and growth of erythroleukemic cells", "assay_type": "cell-based, mouse", "conditions": "day 3 (Table 2)", "method": "Mouse erythroleukemic cells (MEL): MEL cells are erythroblast like cells. Following treatment with several chemicals (differentiation inducers) the cells undergo erythroid differentiation and accumulate hemoglobin. […] At day 3 of the culture, the total number of cells and the percentage of hemoglobin-containing cells were determined (Table 2).\nOn day 3, total cell number and hemoglobin containing (benzidine positive) cells were determined."}, "[4]": {"system": "HL-60 cells", "experiment": "Copper determination in chelator treated cells (atomic absorption)", "assay_type": "cell-based, human", "method": "Copper Determination: Cells were harvested by centrifugation at 1000×g for 5 minutes. The cell pellet was washed three times by re-suspending the cells in PBS (Ca^++ and Mg^++ free) and centrifugation at 1000×g. An aliquot containing 2×10^6 cells was then transferred into a metal-free Eppendorf tube and the cells were recovered by centrifugation at 1000×g. The cell pellet was re-suspended in 0.03 M ultra-pure nitric acid to give a concentration of 1×10^7 cells/ml. The cells were homogenized with a high shear mixer (polytron, Kinematica, Switzerland) for 1 minutes to disrupt the cell and release intracellular copper content. Cell samples were vortexed before transferring to a vial autosampler and analyzed in duplicate by a Perkin Elmer graphite furnace atomic absorption spectrophotometer at a wavelength of 324.7 nm. The samples were analyzed against copper standard solution prepared from a commercial stock solution that was diluted with 0.03 M ultra pure nitric acid."}, "[5]": {"system": "cord blood-derived CD34^+ cells", "experiment": "Copper-chelating peptides on proliferation and clonability in CD34 cell cultures", "assay_type": "cell-based", "conditions": "for decrease of cell number / decrease of clonogenic potential (CFUc): peptides 10 μM, cytokines 10 ng/ml each; for decrease of cell number: after 7 weeks (FIG. 25a); for decrease of clonogenic potential (CFUc): after 7 weeks (FIG. 25b); for effect on cell differentiation: second group of Copper chelators", "method": "Culture procedures: For the expansion of progenitor cells, CD34^+ enriched fractions were seeded at 1×10^4 cells/ml in alpha minimal essential medium containing 10% preselected fetal calf serum (FCS) (both from GIBCO, Grand Island, N.Y.). The medium was supplemented with a mixture of growth factors and Copper chelators. The cultures were incubated at 37° C. in an atmosphere of 5% CO2 in air with extra humidity. Half of the medium was changed weekly with fresh medium containing all the supplements.\nThe cloning potential of the cultured cells was assayed in semi-solid medium. The cells were washed and seeded in 35 mm dishes in methylcellulose containing alpha medium supplemented with 30% FCS and further with recombinant growth factors (stem cell factor (SCF), G-CSF, GM-CSF and erythropoietin (EPO)). Following two week incubation, the cultures were scored with an inverted microscope. Colonies were classified as blast, mixed, erythroid, myeloid, and megakaryocytic, according to their cellular composition.\nThe effect of Copper-chelating peptides on proliferation and clonability in CD34 cell cultures: Cultures were initiated with 10^4 cord blood-derived CD34^+ cells by plating purified cells in liquid medium in the presence of SCF, FLT3 and IL-6 (50 ng/ml each) and the Copper-binding peptides, Gly-Gly-His (GGH) or Gly-His-Lys (GHL) (10 μM each), or the late-acting cytokines G-CSF and GM-CSF (10 ng/ml each). At weekly intervals, the cultures were demi-depopulated and supplemented with fresh medium, cytokines and the peptides. After 7 weeks, cells were counted and assayed for CFUc."}, "[6]": {"conditions": "polyamine chelating agents, weeks 3, 4, 6, 7 (FIGS. 21a-b)"}},
  "data": [
    {"molecule": "CC(C)(S)[C@@H](N)C(=O)O", "note": "[Penicilamine, penicilamine, reference compound]", "values": [
      {"measurement": "effects of transition metal chelators on CD34^+ cells", "setting": "[1]", "value": "share the same effects on CD34^+ cells as TEPA"},
      {"measurement": "cell proliferation and generation of CFUc in long-term cultures", "setting": "[2]", "value": "sustained cell proliferation and expansion of clonogenic cells"},
      {"measurement": "concentrations with optimal activity", "setting": "[2]; transition metal chelating agents, weeks 4, 5, 7 (FIGS. 22a-b)", "value": 5, "unit": "µM"}
    ]},
    {"molecule": "O=S(=O)([O-])[O-].[Zn+2]", "note": "[Zinc, Zinc-sulfate]", "values": [
      {"measurement": "clonability of the cultures", "setting": "[1]; Zinc alone (FIG. 10)", "value": "expand the clonability"},
      {"measurement": "effect of Zinc in long term cultures", "setting": "[2]; FIGS. 23a-b, to a smaller extent than the chelators", "value": "mimicked the effect of the chelating agents"}
    ]},
    {"molecule": "NCCN", "note": "[EDA, ethylenediamine]", "values": [
      {"measurement": "cell proliferation and generation of CFUc in long-term cultures", "setting": "[2]", "value": "support continuous cell proliferation and long-term generation of CFUc and to delay cell differentiation"},
      {"measurement": "concentrations with optimal activity", "setting": "[2]; [6]", "value": 20, "unit": "µM"}
    ]},
    {"molecule": "C[C@H](CS)C(=O)N1CCC[C@H]1C(=O)O", "note": "[Captopril, captopril, reference compound]", "values": [
      {"measurement": "effects of transition metal chelators on CD34^+ cells", "setting": "[1]", "value": "share the same effects on CD34^+ cells as TEPA"},
      {"measurement": "HMBA-induced differentiation of MEL cells", "setting": "[3]", "value": "inhibited"}
    ]},
    {"molecule": "C1CNCCNCCN1.Cl.Cl.Cl", "note": "[1,4,7-Triazacyclononane trihydrochioride]", "values": [
      {"measurement": "Average Intracellular Cu (% of control)", "setting": "[4]; 20 μM", "value": 32, "unit": "%"},
      {"measurement": "Average Intracellular Cu (% of control)", "setting": "[4]; 100 μM", "value": 36, "unit": "%"}
    ]},
    {"molecule": "iron", "values": [
      {"measurement": "reversal of TEPA activities by supplemented ions", "setting": "[1]", "value": "did not"}
    ]},
    {"molecule": "O=S(=O)([O-])[O-].[Cu+2]", "note": "[Copper, Copper-sulfate]", "values": [
      {"measurement": "reversal of TEPA activities by supplemented ions", "setting": "[1]", "value": "reversed"}
    ]},
    {"molecule": "Gly-Gly-His (GHK) [GGH]", "values": [
      {"measurement": "activity on differentiation of CD34^+ cells", "setting": "[2]", "value": "stimulate differentiation"},
      {"measurement": "decrease of cell number", "setting": "[5]", "value": 10, "unit": "%"},
      {"measurement": "decrease of clonogenic potential (CFUc)", "setting": "[5]", "value": 80, "unit": "%"},
      {"measurement": "effect on cell differentiation", "setting": "[5]", "value": "accelerate cell differentiation"}
    ]},
    {"molecule": "C1CNCCNCCNCCN1", "note": "[1,4,7,10-Tetraaza cyclododecane]", "values": [
      {"measurement": "activity on differentiation of CD34^+ cells", "setting": "[2]", "value": "stimulate differentiation"}
    ]},
    {"molecule": "O=C1CC(=O)NCCNCCCNCCN1", "note": "[1,4,8,11-Tetraaza cyclotetradecane-5,7-dione]", "values": [
      {"measurement": "Average Intracellular ppb Cu", "setting": "[4]; 100 μM, control 49 + − 18", "value": 274, "unit": "ppb"}
    ]},
    {"molecule": "Gly-His-Lys (GGH) [GHL]", "values": [
      {"measurement": "activity on differentiation of CD34^+ cells", "setting": "[2]", "value": "stimulate differentiation"},
      {"measurement": "decrease of cell number", "setting": "[5]", "value": 25, "unit": "%"},
      {"measurement": "decrease of clonogenic potential (CFUc)", "setting": "[5]", "value": 78, "unit": "%"},
      {"measurement": "effect on cell differentiation", "setting": "[5]", "value": "accelerate cell differentiation"}
    ]},
    {"molecule": "O=[Se]([O-])[O-].[Na+].[Na+]", "note": "[selenium, sodium selenite]", "values": [
      {"measurement": "reversal of TEPA activities by supplemented ions", "setting": "[1]", "value": "did not"}
    ]},
    {"molecule": "NCCNCCNCCN", "note": "[Triethylene tetramine, triethylene-tetramine]", "values": [
      {"measurement": "cell proliferation and generation of CFUc in long-term cultures", "setting": "[2]", "value": "support continuous cell proliferation and long-term generation of CFUc and to delay cell differentiation"},
      {"measurement": "concentrations with optimal activity", "setting": "[2]; [6]", "value": 20, "unit": "µM"}
    ]}
  ]
}
